Where “and” joins values, the source holds several entries; their conditions need not be identical. Identical values can stand only once.
How the values were obtained:
Sgf29 D266E = target: T1, Sgf29 D266E (Homo sapiens, UniProt Q96ES7, D266E); assay: ITC binding of histone peptides to Sgf29 D266E
T1 construct: 6xHis (cleaved yes); made in house; host or cells: E. coli Rosetta BL21 DE3 PlysS
T1 sequence (Q96ES7 115-293 D266E): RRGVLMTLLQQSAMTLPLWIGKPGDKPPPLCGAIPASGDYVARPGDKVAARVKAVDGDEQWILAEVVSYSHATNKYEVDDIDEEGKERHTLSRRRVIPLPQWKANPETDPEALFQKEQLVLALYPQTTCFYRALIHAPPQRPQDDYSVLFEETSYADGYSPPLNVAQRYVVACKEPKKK

Sgf29 Y245F = target: T2, Sgf29 Y245F (Homo sapiens, UniProt Q96ES7, Y245F); assay: ITC binding of histone peptides to Sgf29 Y245F
T2 construct: 6xHis (cleaved yes); made in house; host or cells: E. coli Rosetta BL21 DE3 PlysS
T2 sequence (Q96ES7 115-293 Y245F): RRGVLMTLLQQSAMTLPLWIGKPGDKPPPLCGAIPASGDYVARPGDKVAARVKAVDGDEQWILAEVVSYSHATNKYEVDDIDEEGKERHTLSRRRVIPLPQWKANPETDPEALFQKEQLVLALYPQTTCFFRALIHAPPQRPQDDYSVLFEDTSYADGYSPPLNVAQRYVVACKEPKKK

Sgf29 D266A = target: T3, Sgf29 D266A (Homo sapiens, UniProt Q96ES7, D266A); assay: ITC binding of histone peptides to Sgf29 D266A
T3 construct: 6xHis (cleaved yes); made in house; host or cells: E. coli Rosetta BL21 DE3 PlysS
T3 sequence (Q96ES7 115-293 D266A): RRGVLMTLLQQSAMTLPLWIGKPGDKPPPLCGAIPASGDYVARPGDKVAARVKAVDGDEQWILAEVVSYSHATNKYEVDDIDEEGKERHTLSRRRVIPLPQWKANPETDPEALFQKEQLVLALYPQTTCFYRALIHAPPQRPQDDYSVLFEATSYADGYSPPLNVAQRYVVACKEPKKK

Sgf29 Y238F = target: T4, Sgf29 Y238F (Homo sapiens, UniProt Q96ES7, Y238F); assay: ITC binding of histone peptides to Sgf29 Y238F
T4 construct: 6xHis (cleaved yes); made in house; host or cells: E. coli Rosetta BL21 DE3 PlysS
T4 sequence (Q96ES7 115-293 Y238F): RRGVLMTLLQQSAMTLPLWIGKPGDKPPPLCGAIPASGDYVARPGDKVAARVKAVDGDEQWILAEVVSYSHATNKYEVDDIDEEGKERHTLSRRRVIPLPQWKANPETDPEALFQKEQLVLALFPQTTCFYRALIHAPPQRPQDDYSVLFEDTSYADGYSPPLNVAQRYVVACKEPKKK

Sgf29 D266N = target: T5, Sgf29 D266N (Homo sapiens, UniProt Q96ES7, D266N); assay: ITC binding of histone peptides to Sgf29 D266N
T5 construct: 6xHis (cleaved yes); made in house; host or cells: E. coli Rosetta BL21 DE3 PlysS
T5 sequence (Q96ES7 115-293 D266N): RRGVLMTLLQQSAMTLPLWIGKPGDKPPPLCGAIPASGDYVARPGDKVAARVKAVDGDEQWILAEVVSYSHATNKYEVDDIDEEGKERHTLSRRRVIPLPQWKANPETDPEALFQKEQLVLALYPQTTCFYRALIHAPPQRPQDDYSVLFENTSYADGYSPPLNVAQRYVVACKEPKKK

Sgf29 D266F = target: T6, Sgf29 D266F (Homo sapiens, UniProt Q96ES7, D266F); assay: ITC binding of histone peptides to Sgf29 D266F
T6 construct: 6xHis (cleaved yes); made in house; host or cells: E. coli Rosetta BL21 DE3 PlysS
T6 sequence (Q96ES7 115-293 D266F): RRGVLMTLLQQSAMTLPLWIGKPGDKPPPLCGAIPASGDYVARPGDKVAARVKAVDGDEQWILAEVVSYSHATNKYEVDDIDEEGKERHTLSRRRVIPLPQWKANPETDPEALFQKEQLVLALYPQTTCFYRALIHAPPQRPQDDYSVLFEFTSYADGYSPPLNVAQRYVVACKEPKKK

[1] = target: T7, tandem tudor domain of Sgf29, WT (Homo sapiens, UniProt Q96ES7); assay: ITC binding of histone peptides to WT Sgf29
T7 construct: 6xHis (cleaved yes); made in house; host or cells: E. coli Rosetta BL21 DE3 PlysS
T7 sequence (Q96ES7 115-293): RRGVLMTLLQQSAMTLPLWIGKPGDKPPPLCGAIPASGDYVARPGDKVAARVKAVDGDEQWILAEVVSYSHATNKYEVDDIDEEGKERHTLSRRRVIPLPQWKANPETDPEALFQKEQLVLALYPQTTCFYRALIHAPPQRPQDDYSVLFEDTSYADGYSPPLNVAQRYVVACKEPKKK

Sgf29 D266Y = target: T8, Sgf29 D266Y (Homo sapiens, UniProt Q96ES7, D266Y); assay: ITC binding of histone peptides to Sgf29 D266Y
T8 construct: 6xHis (cleaved yes); made in house; host or cells: E. coli Rosetta BL21 DE3 PlysS
T8 sequence (Q96ES7 115-293 D266Y): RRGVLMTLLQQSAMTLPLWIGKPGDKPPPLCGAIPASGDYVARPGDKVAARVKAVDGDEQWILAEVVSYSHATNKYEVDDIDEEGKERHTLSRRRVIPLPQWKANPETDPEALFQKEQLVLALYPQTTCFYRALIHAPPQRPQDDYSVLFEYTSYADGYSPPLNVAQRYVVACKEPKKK

Sgf29 D266W = target: T9, Sgf29 D266W (Homo sapiens, UniProt Q96ES7, D266W); assay: ITC binding of histone peptides to Sgf29 D266W
T9 construct: 6xHis (cleaved yes); made in house; host or cells: E. coli Rosetta BL21 DE3 PlysS
T9 sequence (Q96ES7 115-293 D266W): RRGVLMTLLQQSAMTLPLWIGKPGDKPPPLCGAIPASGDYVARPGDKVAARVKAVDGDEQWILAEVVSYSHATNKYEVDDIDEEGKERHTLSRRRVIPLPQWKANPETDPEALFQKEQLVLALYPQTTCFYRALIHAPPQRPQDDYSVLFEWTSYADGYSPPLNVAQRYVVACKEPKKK

[2] = D266E, TRIS pH 8.0, ± SD (2–4 repeats)
[3] = Y245F, TRIS pH 8.0, ± SD (2–4 repeats)
[4] = D266A, TRIS pH 8.0, ± SD (2–4 repeats)
[5] = Y238F, TRIS pH 8.0, ± SD (2–4 repeats)
[6] = D266N, TRIS pH 8.0, ± SD (2–4 repeats)
[7] = D266F, TRIS pH 8.0, ± SD (2–4 repeats)
[8] = WT Sgf29, TRIS pH 8.0, ± SD (2–4 repeats)
[9] = D266Y, TRIS pH 8.0, ± SD (2–4 repeats)

C[C@H](N)C(=O)N[C@@H](CCCNC(=N)N)C(=O)N[C@H](C(=O)N[C@@H](CCCC[N+](C)(C)C)C(=O)N[C@@H](CCC(N)=O)C(=O)N[C@H](C(=O)N[C@@H](C)C(=O)N[C@@H](CCCNC(=N)N)C(=O)N[C@@H](CCCCN)C(=O)N[C@@H](CO)C(N)=O)[C@@H](C)O)[C@@H](C)O [H3K4me3]
binding affinity (in words) (Sgf29 D266E; D266E relative to WT Sgf29): virtually indistinguishable binding affinities | -TΔS° (Sgf29 D266E; [2]): 1.6 ± 0.1 kcal/mol | ΔG° (Sgf29 D266E; [2]): -7.4 ± 0.1 kcal/mol | ΔH° (Sgf29 D266E; [2]): -9.0 ± 0.1 kcal/mol | reduced binding affinity (Sgf29 Y245F; Y245F relative to WT Sgf29): 4.5 fold | -TΔS° (Sgf29 Y245F; [3]): -0.7 ± 0.1 kcal/mol | ΔG° (Sgf29 Y245F; [3]): -6.6 ± 0.1 kcal/mol | ΔH° (Sgf29 Y245F; [3]): -5.9 ± 0.1 kcal/mol | more unfavorable ΔH° (difference) (Sgf29 D266A; D266A relative to WT Sgf29): 1.7 kcal/mol | reduction in binding affinity (Sgf29 D266A; D266A relative to WT Sgf29): 8 fold | -TΔS° (Sgf29 D266A; [4]): 0.1 ± 0.1 kcal/mol | ΔG° (Sgf29 D266A; [4]): -6.3 ± 0.1 kcal/mol | ΔH° (Sgf29 D266A; [4]): -6.4 ± 0.1 kcal/mol | thermodynamic profile (in words) (Sgf29 Y238F; Y238F variants with altered or similar CD spectra, compared to WT Sgf29): indistinguishable thermodynamic profiles | -TΔS° (Sgf29 Y238F; [5]): 0.7 ± 0.1 kcal/mol | ΔG° (Sgf29 Y238F; [5]): -7.4 ± 0.1 kcal/mol | ΔH° (Sgf29 Y238F; [5]): -8.1 ± 0.1 kcal/mol | decrease in binding affinity (Sgf29 D266N; D266N relative to WT Sgf29): 8 fold | increase in entropy / -TΔS° (Sgf29 D266N; D266N relative to WT Sgf29): 0.7 kcal/mol | -TΔS° (Sgf29 D266N; [6]): -0.1 ± 0.1 kcal/mol | ΔG° (Sgf29 D266N; [6]): -6.3 kcal/mol and -6.3 ± 0.1 kcal/mol | ΔH° (Sgf29 D266N; [6]): -6.2 ± 0.1 kcal/mol | decrease in ΔH° (Sgf29 D266F; D266F relative to WT Sgf29): 4.6 kcal/mol | more favorable -TΔS° (difference) (Sgf29 D266F; D266F relative to WT Sgf29): 3.1 kcal/mol | reduction in binding affinity (Sgf29 D266F; D266F relative to WT Sgf29): 14 fold | -TΔS° (Sgf29 D266F; [7]): -2.5 ± 0.1 kcal/mol | ΔG° (Sgf29 D266F; [7]): -5.9 ± 0.1 kcal/mol | ΔH° (Sgf29 D266F; [7]): -3.4 ± 0.2 kcal/mol | -TΔS° less favorable relative to Sgf29-H3K4me2, by ([1]; H3K4me3 vs H3K4me2, WT Sgf29): 0.7 kcal/mol | ΔH° more favorable relative to Sgf29-H3K4me2, by ([1]; H3K4me3 vs H3K4me2, WT Sgf29): 0.9 kcal/mol | -TΔS° [1, 8]: 0.6 kcal/mol and 0.6 ± 0.2 kcal/mol | ΔG° [1, 8]: -7.5 ± 0.1 kcal/mol | ΔH° [1, 8]: -8.1 kcal/mol and -8.1 ± 0.2 kcal/mol | decrease in enthalpy (Sgf29 D266Y; D266Y relative to WT Sgf29): 3.3 kcal/mol | increase in entropy (Sgf29 D266Y; D266Y relative to WT Sgf29): about 2.1 kcal mol^-1 | -TΔS° (Sgf29 D266Y; [9]): -1.4 ± 0.3 kcal/mol | ΔG° (Sgf29 D266Y; [9]): -6.2 ± 0.1 kcal/mol | ΔH° (Sgf29 D266Y; [9]): -4.8 ± 0.2 kcal/mol | binding (in words) (Sgf29 D266W): abrogated

— paper PMC4589357, “The Role of Electrostatic Interactions in Binding of Histone H3K4me2/3 to the Sgf29 Tandem Tudor Domain” (PLoS ONE, 2015)
